Values belong to the compound of their own block, whether it stands above or below them. The source made the active and inactive calls. The rule behind the calls is not given here.
How the values were obtained:
[1] = biological target: T1, 5-hydroxytryptamine receptor 2C (Homo sapiens, UniProt P28335)
T1 sequence (P28335 whole entry): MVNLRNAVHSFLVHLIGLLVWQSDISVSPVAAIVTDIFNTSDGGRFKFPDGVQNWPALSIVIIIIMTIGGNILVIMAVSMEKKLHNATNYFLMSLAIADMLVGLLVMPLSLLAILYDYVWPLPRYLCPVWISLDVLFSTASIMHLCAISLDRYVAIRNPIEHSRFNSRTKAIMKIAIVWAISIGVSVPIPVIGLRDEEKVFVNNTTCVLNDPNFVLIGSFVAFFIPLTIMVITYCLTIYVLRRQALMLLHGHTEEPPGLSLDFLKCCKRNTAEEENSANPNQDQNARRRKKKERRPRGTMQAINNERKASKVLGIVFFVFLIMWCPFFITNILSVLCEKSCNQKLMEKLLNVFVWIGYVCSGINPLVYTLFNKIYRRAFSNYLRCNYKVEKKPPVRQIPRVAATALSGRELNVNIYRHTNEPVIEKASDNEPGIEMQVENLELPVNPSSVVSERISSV

[2] = biological target: 5-hydroxytryptamine receptor 2A (Homo sapiens, UniProt P28223)
Sequence of 5-hydroxytryptamine receptor 2A (P28223 whole entry): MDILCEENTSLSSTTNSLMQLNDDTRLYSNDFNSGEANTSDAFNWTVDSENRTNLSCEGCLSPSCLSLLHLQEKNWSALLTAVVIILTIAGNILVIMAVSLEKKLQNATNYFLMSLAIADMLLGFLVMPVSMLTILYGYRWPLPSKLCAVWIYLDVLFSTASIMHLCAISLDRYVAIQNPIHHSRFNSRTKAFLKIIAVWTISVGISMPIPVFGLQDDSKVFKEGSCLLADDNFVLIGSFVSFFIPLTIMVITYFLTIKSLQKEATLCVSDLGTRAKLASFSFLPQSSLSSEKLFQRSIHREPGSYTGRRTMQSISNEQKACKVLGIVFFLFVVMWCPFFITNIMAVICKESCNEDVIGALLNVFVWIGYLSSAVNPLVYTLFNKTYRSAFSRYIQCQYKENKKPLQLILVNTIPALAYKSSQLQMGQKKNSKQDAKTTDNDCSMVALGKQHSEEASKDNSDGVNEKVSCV
Description: Displacement of [125I]-DOI from recombinant human 5HT2A receptor

[3] = Plasma concentration in rat at 3 mg/kg after 0.75 hrs; format: ADME, organism-based; design: dose 3 mg/kg
Rattus norvegicus [4] = experiment: Oral bioavailability in rat; format: ADME, organism-based; details: in vivo
Rattus norvegicus [5] = experiment: Volume of distribution at steady state in […] rat; format: ADME, organism-based; details: in vivo
Rattus norvegicus [6] = experiment: Total clearance in iv dosed rat; format: ADME, organism-based; details: in vivo
[7] = Half life in po dosed rat; format: ADME, organism-based; details: in vivo
Rattus norvegicus [8] = experiment: Inhibition of DOI-induced hypolocomotion in rat at 3 mg/kg coadministered with DOI 10 mins prior testing; format: functional, organism-based; design: dose 3 mg/kg
Canis familiaris [9] = experiment: Toxicity in telemetered dog model assessed as change in ECG measures upto 30 mg/kg; format: organism-based, Canis lupus familiaris; design: dose 30 mg/kg; details: in vivo
[10] = Plasma concentration in rat at 0.3 mg/kg after 0.75 hrs; format: ADME, organism-based; design: dose 0.3 mg/kg
[11] = Ratio of drug level in brain to plasma in rat at 0.3 mg/kg; format: ADME, organism-based; design: dose 0.3 mg/kg; details: read-out: BPR
[12] = Half life in rat liver microsomes; format: ADME, Microsome
[13] = biological target: T2, Alpha-2A adrenergic receptor (Homo sapiens) (UniProt P08913); experiment: Binding affinity to adrenergic alpha 2 receptor at 10 uM
T2 sequence (whole entry): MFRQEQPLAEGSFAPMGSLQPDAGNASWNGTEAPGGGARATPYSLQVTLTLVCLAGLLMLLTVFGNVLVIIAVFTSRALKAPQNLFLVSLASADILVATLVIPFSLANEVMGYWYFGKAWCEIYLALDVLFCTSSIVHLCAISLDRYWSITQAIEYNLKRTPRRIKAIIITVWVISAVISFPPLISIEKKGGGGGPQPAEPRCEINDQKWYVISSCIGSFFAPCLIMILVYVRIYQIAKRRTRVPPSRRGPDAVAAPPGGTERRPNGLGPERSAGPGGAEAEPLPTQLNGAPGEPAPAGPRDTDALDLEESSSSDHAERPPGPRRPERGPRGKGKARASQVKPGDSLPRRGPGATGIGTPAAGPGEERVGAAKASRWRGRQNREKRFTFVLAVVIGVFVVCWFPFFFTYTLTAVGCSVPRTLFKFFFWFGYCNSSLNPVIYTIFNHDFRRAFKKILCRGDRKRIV

[14] = biological target: T3, Alpha-1A adrenergic receptor (Homo sapiens) (UniProt P35348); experiment: Binding affinity to adrenergic alpha 1 receptor at 10 uM
T3 sequence (whole entry): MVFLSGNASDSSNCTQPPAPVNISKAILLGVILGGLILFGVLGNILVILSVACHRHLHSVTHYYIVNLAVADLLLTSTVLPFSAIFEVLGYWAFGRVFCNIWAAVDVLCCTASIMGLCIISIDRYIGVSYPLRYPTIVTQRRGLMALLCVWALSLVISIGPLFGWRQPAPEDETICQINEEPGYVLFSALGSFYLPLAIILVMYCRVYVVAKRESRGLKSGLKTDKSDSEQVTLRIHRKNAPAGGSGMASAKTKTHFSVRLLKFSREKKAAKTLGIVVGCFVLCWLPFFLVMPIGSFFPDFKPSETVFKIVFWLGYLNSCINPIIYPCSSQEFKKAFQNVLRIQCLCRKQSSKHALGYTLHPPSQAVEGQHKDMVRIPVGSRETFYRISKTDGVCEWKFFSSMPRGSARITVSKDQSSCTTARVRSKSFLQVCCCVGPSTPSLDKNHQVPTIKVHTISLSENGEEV

[15] = biological target: D(1B) dopamine receptor (Homo sapiens) (UniProt P21918); experiment: Binding affinity to dopamine receptor D5 at 10 uM
Sequence of D(1B) dopamine receptor (Homo sapiens) (P21918 whole entry): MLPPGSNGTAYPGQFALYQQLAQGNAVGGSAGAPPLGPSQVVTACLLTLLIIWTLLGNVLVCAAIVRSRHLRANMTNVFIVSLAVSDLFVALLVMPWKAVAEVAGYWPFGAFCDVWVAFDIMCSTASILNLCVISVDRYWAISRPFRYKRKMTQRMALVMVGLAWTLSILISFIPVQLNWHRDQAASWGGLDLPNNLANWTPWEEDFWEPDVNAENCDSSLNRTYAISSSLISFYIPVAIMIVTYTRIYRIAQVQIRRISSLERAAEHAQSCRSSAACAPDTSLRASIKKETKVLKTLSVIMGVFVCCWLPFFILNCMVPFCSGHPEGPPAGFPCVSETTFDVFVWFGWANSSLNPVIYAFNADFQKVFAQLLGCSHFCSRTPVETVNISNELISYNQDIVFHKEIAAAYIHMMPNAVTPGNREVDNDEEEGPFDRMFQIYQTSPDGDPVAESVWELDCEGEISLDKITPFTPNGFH

[16] = biological target: T4, D(4) dopamine receptor (Homo sapiens) (UniProt P21917); experiment: Binding affinity to dopamine receptor D4 at 10 uM
T4 sequence (whole entry): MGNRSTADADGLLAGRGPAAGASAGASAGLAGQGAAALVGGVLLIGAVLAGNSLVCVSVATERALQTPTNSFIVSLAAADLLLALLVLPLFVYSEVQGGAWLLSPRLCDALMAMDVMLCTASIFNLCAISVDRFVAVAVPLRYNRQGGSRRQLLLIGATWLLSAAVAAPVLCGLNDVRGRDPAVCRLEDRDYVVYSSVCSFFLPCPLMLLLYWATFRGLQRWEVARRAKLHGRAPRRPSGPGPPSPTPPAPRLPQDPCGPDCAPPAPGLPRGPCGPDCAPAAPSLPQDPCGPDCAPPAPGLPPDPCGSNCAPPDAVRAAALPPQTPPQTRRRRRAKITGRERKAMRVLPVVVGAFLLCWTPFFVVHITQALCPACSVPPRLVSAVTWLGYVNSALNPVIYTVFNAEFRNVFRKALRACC

[17] = biological target: D(3) dopamine receptor (Homo sapiens) (UniProt P35462); experiment: Binding affinity to dopamine receptor D3 at 10 uM
Sequence of D(3) dopamine receptor (Homo sapiens) (P35462 whole entry): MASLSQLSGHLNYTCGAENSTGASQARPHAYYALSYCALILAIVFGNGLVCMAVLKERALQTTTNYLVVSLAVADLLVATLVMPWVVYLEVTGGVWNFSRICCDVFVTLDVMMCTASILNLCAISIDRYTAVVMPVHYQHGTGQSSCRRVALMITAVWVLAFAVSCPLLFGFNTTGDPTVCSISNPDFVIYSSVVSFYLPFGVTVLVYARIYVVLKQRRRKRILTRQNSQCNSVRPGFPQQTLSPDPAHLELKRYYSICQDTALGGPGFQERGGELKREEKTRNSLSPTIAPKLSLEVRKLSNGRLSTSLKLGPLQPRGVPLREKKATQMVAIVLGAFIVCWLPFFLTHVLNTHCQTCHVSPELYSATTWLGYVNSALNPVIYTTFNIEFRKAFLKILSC

[18] = biological target: D(2) dopamine receptor (Homo sapiens) (UniProt P14416); experiment: Binding affinity to dopamine receptor D2 at 10 uM
Sequence of D(2) dopamine receptor (Homo sapiens) (P14416 whole entry): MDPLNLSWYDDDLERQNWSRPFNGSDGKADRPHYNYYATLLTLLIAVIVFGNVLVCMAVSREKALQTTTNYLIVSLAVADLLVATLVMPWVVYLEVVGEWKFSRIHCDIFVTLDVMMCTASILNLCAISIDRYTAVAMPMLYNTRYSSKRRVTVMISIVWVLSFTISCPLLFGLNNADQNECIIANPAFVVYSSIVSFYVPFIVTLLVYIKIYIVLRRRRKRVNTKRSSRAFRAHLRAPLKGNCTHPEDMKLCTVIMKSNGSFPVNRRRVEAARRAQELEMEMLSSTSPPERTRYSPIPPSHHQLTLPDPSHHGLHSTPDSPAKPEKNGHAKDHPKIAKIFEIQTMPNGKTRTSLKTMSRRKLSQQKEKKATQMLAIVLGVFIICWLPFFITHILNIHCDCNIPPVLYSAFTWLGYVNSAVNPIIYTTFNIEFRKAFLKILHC

[19] = biological target: D(1A) dopamine receptor (Homo sapiens) (UniProt P21728); experiment: Binding affinity to dopamine receptor D1 at 10 uM
Sequence of D(1A) dopamine receptor (Homo sapiens) (P21728 whole entry): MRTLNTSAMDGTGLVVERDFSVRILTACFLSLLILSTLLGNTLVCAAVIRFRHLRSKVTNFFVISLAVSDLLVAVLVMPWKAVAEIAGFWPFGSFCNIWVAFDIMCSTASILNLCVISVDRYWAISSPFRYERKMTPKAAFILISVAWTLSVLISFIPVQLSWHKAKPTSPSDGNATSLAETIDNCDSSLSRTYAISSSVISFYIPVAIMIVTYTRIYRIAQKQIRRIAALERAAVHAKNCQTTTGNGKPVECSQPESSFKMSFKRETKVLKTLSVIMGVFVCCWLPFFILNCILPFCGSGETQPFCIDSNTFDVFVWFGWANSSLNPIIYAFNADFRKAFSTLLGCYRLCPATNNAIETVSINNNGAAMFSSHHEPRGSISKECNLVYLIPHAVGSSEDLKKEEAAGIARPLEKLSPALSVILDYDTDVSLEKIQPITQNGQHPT

Rattus norvegicus [20] = experiment: Antiinsomnia activity in po dosed rat assessed as increase in non-rapid eye movement bout duration after 5 hrs; format: functional, organism-based
Rattus norvegicus [21] = experiment: Antiinsomnia activity in po dosed rat assessed as decrease in non-rapid eye movement bout number after 5 hrs; format: functional, organism-based
Rattus norvegicus [22] = experiment: Antiinsomnia activity in po dosed rat assessed as increase in sleep consolidation after 5 hrs; format: functional, organism-based
Rattus norvegicus [23] = experiment: Antiinsomnia activity in rat assessed as increase in delta power at 0.1 mg/kg, po after 3 to 4 hrs; format: functional, organism-based; design: dose 0.1 mg/kg
Rattus norvegicus [24] = experiment: Antiinsomnia activity in rat assessed as increase in delta power at 0.1 mg/kg, po after 1 hr; format: functional, organism-based; design: dose 0.1 mg/kg
Rattus norvegicus [25] = experiment: AUClast in rat at 3 mg/kg, po; format: ADME, organism-based, Plasma; design: time 0 - last, dose 3 mg/kg, route oral; details: in vivo
[26] = Cmax in rat at 3 mg/kg, po; format: ADME, organism-based; design: dose 3 mg/kg, route oral; details: in vivo
Rattus norvegicus [27] = experiment: Inhibition of DOI-induced hypolocomotion in rat drug coadministered with DOI 10 mins prior testing; format: functional
[28] = Drug uptake in rat brain at 0.3 mg/kg after 0.75 hrs; format: ADME, organism-based; design: dose 0.3 mg/kg; details: read-out: Drug uptake
Cytochrome P450 1A2 = biological target: T5, Cytochrome P450 1A2 (Homo sapiens, UniProt P05177); experiment: Inhibition of CYP1A2 in human liver microsomes; format: ADME, Microsome
T5 sequence (P05177 whole entry): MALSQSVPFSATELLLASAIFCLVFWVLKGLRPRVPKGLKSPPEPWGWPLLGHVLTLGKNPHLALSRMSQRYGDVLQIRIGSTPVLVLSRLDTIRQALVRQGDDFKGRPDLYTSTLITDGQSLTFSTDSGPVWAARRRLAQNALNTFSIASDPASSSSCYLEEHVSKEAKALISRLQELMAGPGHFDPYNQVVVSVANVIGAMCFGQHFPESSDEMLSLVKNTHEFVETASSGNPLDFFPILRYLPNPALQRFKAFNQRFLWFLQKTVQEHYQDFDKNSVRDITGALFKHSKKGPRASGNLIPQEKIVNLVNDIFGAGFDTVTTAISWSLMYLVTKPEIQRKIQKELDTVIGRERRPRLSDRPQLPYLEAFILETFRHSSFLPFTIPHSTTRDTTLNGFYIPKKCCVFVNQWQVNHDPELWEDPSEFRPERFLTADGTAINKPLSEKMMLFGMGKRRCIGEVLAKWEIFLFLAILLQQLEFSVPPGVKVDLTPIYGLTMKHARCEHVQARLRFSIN

Cytochrome P450 2C9 = Cytochrome P450 2C9 (Homo sapiens, UniProt P11712); experiment: Inhibition of CYP2C9 in human liver microsomes; format: ADME, Microsome
Sequence of Cytochrome P450 2C9 (P11712 whole entry): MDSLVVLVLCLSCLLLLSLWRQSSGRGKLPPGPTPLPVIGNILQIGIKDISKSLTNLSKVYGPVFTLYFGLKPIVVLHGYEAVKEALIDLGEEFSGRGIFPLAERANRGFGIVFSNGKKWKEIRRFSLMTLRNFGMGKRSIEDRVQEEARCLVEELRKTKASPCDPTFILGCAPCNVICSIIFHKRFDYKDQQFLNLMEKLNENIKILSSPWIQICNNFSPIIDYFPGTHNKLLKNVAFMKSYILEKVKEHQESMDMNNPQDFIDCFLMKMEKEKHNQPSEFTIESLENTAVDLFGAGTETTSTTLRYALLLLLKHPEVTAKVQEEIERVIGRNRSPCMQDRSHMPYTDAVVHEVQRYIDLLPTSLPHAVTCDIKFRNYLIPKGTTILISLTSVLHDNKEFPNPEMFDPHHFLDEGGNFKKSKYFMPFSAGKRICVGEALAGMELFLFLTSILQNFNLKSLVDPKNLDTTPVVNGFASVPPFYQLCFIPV

Cytochrome P450 2C19 = Cytochrome P450 2C19 (Homo sapiens, UniProt P33261); experiment: Inhibition of […] in human liver microsomes; format: ADME, Microsome
Sequence of Cytochrome P450 2C19 (P33261 whole entry): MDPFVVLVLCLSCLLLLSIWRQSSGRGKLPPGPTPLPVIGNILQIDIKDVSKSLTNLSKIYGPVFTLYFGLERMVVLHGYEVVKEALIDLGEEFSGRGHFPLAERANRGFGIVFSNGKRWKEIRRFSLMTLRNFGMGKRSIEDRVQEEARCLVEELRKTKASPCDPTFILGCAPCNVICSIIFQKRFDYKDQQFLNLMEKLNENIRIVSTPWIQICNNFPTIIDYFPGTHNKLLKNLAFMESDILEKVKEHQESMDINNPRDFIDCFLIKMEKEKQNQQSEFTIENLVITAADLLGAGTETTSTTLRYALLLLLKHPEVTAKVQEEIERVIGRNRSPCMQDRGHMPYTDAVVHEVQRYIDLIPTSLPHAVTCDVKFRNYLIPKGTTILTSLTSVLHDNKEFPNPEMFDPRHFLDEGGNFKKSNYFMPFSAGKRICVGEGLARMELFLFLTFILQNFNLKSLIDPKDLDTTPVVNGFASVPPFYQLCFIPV

Cytochrome P450 2D6 = Cytochrome P450 2D6 (Homo sapiens, UniProt P10635); experiment: Inhibition of CYP2D6 in human liver microsomes; format: ADME, Microsome
Sequence of Cytochrome P450 2D6 (P10635 whole entry): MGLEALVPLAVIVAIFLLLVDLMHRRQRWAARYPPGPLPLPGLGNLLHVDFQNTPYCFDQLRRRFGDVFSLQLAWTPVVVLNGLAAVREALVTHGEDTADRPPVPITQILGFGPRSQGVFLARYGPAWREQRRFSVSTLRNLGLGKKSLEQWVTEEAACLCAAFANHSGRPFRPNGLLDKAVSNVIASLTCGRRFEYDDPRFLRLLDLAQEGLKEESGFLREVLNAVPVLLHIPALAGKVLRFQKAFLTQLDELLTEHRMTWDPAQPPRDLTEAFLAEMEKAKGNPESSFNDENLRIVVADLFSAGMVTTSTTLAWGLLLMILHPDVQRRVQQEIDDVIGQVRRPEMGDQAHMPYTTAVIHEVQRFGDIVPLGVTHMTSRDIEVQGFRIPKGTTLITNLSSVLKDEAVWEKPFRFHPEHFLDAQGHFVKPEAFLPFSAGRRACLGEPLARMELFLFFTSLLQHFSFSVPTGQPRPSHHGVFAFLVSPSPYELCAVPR

Cytochrome P450 3A4 = Cytochrome P450 3A4 (Homo sapiens, UniProt P08684); experiment: Inhibition of CYP3A4 in human liver microsomes; format: ADME, Microsome
Sequence of Cytochrome P450 3A4 (P08684 whole entry): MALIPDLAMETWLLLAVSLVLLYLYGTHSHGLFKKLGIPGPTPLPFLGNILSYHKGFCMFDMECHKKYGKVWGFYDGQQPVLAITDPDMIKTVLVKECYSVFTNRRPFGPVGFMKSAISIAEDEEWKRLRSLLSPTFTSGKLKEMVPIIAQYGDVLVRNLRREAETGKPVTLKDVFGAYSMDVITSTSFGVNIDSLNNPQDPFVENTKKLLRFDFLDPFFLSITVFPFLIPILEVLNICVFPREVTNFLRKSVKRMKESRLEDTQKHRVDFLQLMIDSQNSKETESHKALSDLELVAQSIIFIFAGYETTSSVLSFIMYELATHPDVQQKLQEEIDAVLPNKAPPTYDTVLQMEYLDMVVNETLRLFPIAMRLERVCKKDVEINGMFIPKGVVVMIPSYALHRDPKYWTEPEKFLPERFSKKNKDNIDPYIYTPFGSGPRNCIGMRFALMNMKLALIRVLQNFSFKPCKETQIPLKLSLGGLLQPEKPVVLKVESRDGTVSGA

[29] = Plasma protein binding in human; format: ADME, cell-free; details: read-out: PPB (converted)
Canis familiaris [30] = experiment: Toxicity in telemetered dog model assessed as change in hemodynamic measures upto 30 mg/kg; format: organism-based, Canis lupus familiaris; design: dose 30 mg/kg; details: in vivo

Ki [1]: 190 nM
Ki [2]: 2.7 nM
SMILES: Nc1cccn2cc(C(=O)N3CCN(CCc4ccc(F)cc4F)CC3)nc12

concentration at 0.75 h [3]: 8.3 ng/mL
bioavailability (Rattus norvegicus [4]): 9%
Vdss (Rattus norvegicus [5]): 8.1 L/kg
clearance (Rattus norvegicus [6]): 155 mL/min/kg
half-life [7]: 84 min
SMILES: Cn1cc(Br)c(C(=O)N2CCN(CCc3ccc(F)cc3)CC2)n1
Activity (Rattus norvegicus [8]): Active

Ki [1]: 391 nM
Ki [2]: 1.5 nM
SMILES: O=C(c1cccn2cc(Cl)nc12)N1CCN(CCc2ccc(F)cc2F)CC1

Ki [1]: 194 nM
Ki [2]: 0.4 nM
SMILES: O=C(c1cccc2ccnn12)N1CCN(CCc2ccc(F)cc2F)CC1

Ki [1]: 474 nM
Ki [2]: 5 nM
SMILES: O=C(c1cc(Br)cn2ccnc12)N1CCN(CCc2ccc(F)cc2F)CC1

Ki [1]: 739 nM
Ki [2]: 1.7 nM
SMILES: O=C(c1cnc2ccccn12)N1CCN(CCc2ccc(F)cc2F)CC1

concentration at 0.75 h [10]: 11 ng/mL
Kp [11]: 1.32
half-life [12]: 16 min
Activity [13]: < 50%
Activity [14]: < 50%
Activity [15]: < 50%
Activity [16]: < 50%
Activity [17]: < 50%
Activity [18]: < 50%
Activity [19]: < 50%
bioavailability (Rattus norvegicus [4]): 47%
Vdss (Rattus norvegicus [5]): 1.7 L/kg
clearance (Rattus norvegicus [6]): 58.3 mL/min/kg
half-life [7]: 30 min
AUClast (Rattus norvegicus [25]): 440 ng·h/mL
Cmax [26]: 943 ng/mL
concentration at 0.75 h [28]: 14.5 ng/mL
Ki [1]: 524 nM
IC50 (Cytochrome P450 1A2): > 40000 nM
IC50 (Cytochrome P450 2C9): > 40000 nM
IC50 (Cytochrome P450 2C19): > 40000 nM
IC50 (Cytochrome P450 2D6): > 40000 nM
IC50 (Cytochrome P450 3A4): > 40000 nM
fraction unbound [29]: 0.326
SMILES: O=C(c1cccn2ccnc12)N1CCN(CCc2ccc(F)cc2F)CC1
Activity (Canis familiaris [9]): Non-toxic
Activity (Rattus norvegicus [20]): Dose-dependent effect
Activity (Rattus norvegicus [21]): Dose-dependent effect
Activity (Rattus norvegicus [22]): Dose-dependent effect
Activity (Rattus norvegicus [23]): Active
Activity (Rattus norvegicus [24]): Active
ED50 (Rattus norvegicus [27]): 0.3 mg/kg
Activity (Canis familiaris [30]): Non-toxic

Ki [1]: 575 nM
Ki [2]: 5.9 nM
SMILES: O=C(c1cnn2cc(Cl)ccc12)N1CCN(CCc2ccc(F)cc2F)CC1

Ki [1]: 394 nM
Ki [2]: 0.6 nM
SMILES: O=C(c1nn2ccccc2c1Cl)N1CCN(CCc2ccc(F)cc2F)CC1

Ki [1]: 6900 nM
Ki [2]: 2.8 nM
SMILES: N#Cc1cn2cccc(C(=O)N3CCN(CCc4ccc(F)cc4F)CC3)c2n1

Ki [1]: 152 nM
Ki [2]: 1.4 nM
SMILES: Nc1cccc2nc(C(=O)N3CCN(CCc4ccc(F)cc4F)CC3)cn12

Ki [1]: 2880 nM
Ki [2]: 18 nM
SMILES: O=C(c1cnn2c1CCCC2)N1CCN(CCc2ccc(F)cc2F)CC1

From ChEMBL document CHEMBL1955741, “Identification of fused bicyclic heterocycles as potent and selective 5-HT(2A) receptor antagonists for the treatment of insomnia” (Bioorg Med Chem Lett, 2012)
